# Results published in US8673917B2, “2-heteroaryl-pyrrolo [3,4-C]pyrrole derivatives, and use thereof as SCD inhibitors” (Sanofi, priority 2008, dated 2014).
# Where a name gives a salt, the structure may show the parent alone.
# Biological target: T1, SCD1 (Rattus norvegicus, UniProt P07308)
# T1 construct: from tissue; host or cells: liver microsomes of male Wistar rats fed a carbohydrate-rich, low-fat diet
# T1 sequence (P07308 1-358): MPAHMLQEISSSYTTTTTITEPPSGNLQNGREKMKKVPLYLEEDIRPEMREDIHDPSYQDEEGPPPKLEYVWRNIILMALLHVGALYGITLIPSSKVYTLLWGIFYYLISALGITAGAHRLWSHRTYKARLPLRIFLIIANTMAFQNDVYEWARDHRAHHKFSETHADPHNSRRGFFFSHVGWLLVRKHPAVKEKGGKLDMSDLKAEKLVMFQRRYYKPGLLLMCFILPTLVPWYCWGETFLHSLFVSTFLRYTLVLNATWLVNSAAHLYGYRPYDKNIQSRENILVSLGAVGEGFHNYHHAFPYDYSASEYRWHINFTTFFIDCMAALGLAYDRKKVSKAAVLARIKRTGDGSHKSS
# Experiment: Stearoyl-CoA desaturase (SCD1) activity assay with rat liver microsomes, TLC with 1-14C-labeled stearic acid
# Type: biochemical
# Conditions: for IC50: SCD1 activity; for inhibition at 10 µM: inhibition of SCD1 activity at 10 μM/l
# Protocol: The efficacy of the inventive compounds of the formula I was tested with microsomal enzymes in the following assay system:
# The livers of male Wistar rats which (to induce the expression of SCD1) had been fed with a carbohydrate-rich, low-fat diet were homogenized with a Potter tissue homogenizer and differential centrifugation in a buffer which contained 250 mM/l of sucrose and 5 mM/l of HEPES (pH 7.0). The resuspended microsome fraction was stored at −80° C. The stearoyl-CoA desaturase activity was determined in a thin-film chromatography assay with 1-^14C-labeled stearic acid. In short, the particular inventive compounds (in DMSO in a final concentration of 1% [v/v]) were incubated with 15 μg of the rat liver microsomes in 200 μl of assay buffer (6 mM/l of MgCl2, 250 mM/l of sucrose, 150 mM/l of KCl, 40 mM/l of NaF, 100 mM/l of Na2HPO4 (pH7.4), 1.3 mM/l of ATP, 1.5 mM/l of reduced glutathione, 60 uM/l of CoA, 0.33 mM/l of nicotinamide and 0.94 mM/l of NADH) at room temperature for 10 min. 0.5 μCi [1-^14C]-stearic acid (55 mCi/mmol) was added, and the mixture was incubated at 37° C. for 1 h. The radioactively labeled fatty acids were subsequently hydrolyzed at 65° C. with 2.5 M KOH/MeOH:H2O (4:1) for 4 h, protonated with 280 μl of formic acid and extracted with 500 μl of hexane. The TLC plates were immersed into 10% AgNO3 and heat-activated before use. 150 μl of the hexane phase were applied to the plates, and the TLC plates were developed in buffer (chloroform:methanol:acetic acid:water [90:8:1:0.8]) and dried. The plates were read off in a phosphoimager to quantify the SCD1 activity.
# The person skilled in the art can modify this assay in various aspects to determine the inhibition of the stearoyl-CoA desaturase activity.
SMILES,IC50,inhibition at 10 µM
"O=C(c1ccccc1C(F)(F)F)N1CC2=C(C1)CN(c1ccc(OCc3ccccc3)nn1)C2 [Example 8, 5-(6-Benzyloxypyridazin-3-yl)-3,4,5,6-tetrahydro-1H-pyrrolo[3,4-c]pyrrol-2-yl](2-trifluoromethylphenyl)methanone hydrochloride]",8.48 nM,
"O=C(c1ccccc1C(F)(F)F)N1CC2=C(C1)CN(c1ccc(OCc3cscn3)nn1)C2 [Example 6, {5-[6-(Thiazol-4-ylmethoxy)pyridazin-3-yl]-3,4,5,6-tetrahydro-1H-pyrrolo[3,4-c]pyrrol-2-yl}-(2-trifluoromethylphenyl)methanone trifluoroacetate]",483 nM,
"O=C(c1ccccc1C(F)(F)F)N1CC2=C(C1)CN(c1ccc(OCc3ccccc3)cn1)C2 [Example 1, [5-(5-Benzyloxypyridin-2-yl)-3,4,5,6-tetrahydro-1H-pyrrolo[3,4-c]pyrrol-2-yl](2-trifluoromethylphenyl)methanone]",133 nM,80%
"O=C(c1ccccc1C(F)(F)F)N1CC2=C(C1)CN(c1ccc(OCCC3CC3)nn1)C2 [Example 5, {5-[6-(2-Cyclopropylethoxy)pyridazin-3-yl]-3,4,5,6-tetrahydro-1H-pyrrolo[3,4-c]pyrrol-2-yl}-(2-trifluoromethylphenyl)methanone trifluoroacetate]",213 nM,
"O=C(c1ccccc1C(F)(F)F)N1CC2=C(C1)CN(c1ccc(OCc3nccs3)nn1)C2 [Example 2, {5-[6-(Thiazol-2-ylmethoxy)pyridazin-3-yl]-3,4,5,6-tetrahydro-1H-pyrrolo[3,4-c]pyrrol-2-yl}-(2-trifluoromethylphenyl)methanone]",795 nM,86%
"O=C(c1ccccc1C(F)(F)F)N1CC2=C(C1)CN(c1ccc(OCc3ccccc3)nn1)C2 [Example 3, [5-(6-Benzyloxpyridazin-3-yl)-3,4,5,6-tetrahydro-1H-pyrrolo[3,4-c]pyrrol-2-yl](2-trifluoromethylphenyl)methanone]",7.18 nM,100%

# Continued by falling IC50, values first:
IC50,inhibition at 10 µM,SMILES
7120 nM,,"O=C(c1ccccc1C(F)(F)F)N1CC2=C(C1)CN(c1ccc(OCC3CCOCC3)nn1)C2 [Example 7, {5-[6-(Tetrahydropyran-4-ylmethoxy)pyridazin-3-yl]-3,4,5,6-tetrahydro-1H-pyrrolo[3,4-c]pyrrol-2-yl}-(2-trifluoromethylphenyl)methanone trifluoroacetate]"
1340 nM,,"O=C(c1ccccc1C(F)(F)F)N1CC2=C(C1)CN(c1ccc(OCc3ccccn3)nn1)C2 [Example 9, 5-[6-(Pyridin-2-ylmethoxy)pyridazin-3-yl]-3,4,5,6-tetrahydro-1H-pyrrolo[3,4-c]pyrrol-2-yl}-(2-trifluoromethylphenyl)methanone hydrochloride]"
43.4 nM,,"O=C(c1ccccc1C(F)(F)F)N1CC2=C(C1)CN(c1ccc(OCCc3ccccc3)nn1)C2 [Example 4, [5-(6-Phenethyloxypyridazin-3-yl)-3,4,5,6-tetrahydro-1H-pyrrolo[3,4-c]pyrrol-2-yl](2-trifluoromethylphenyl)methanone trifluoroacetate]"
